{"source": "patent US9216991B2", "about": "(Ares Trading S.A., priority 2012, dated 2015)", "data": [{"target": "T1, IRAK4 (Homo sapiens, UniProt Q9NWZ3)", "T1 construct": "His (N); TEV cleavage site (N)", "T1 sequence (Q9NWZ3 1-460)": "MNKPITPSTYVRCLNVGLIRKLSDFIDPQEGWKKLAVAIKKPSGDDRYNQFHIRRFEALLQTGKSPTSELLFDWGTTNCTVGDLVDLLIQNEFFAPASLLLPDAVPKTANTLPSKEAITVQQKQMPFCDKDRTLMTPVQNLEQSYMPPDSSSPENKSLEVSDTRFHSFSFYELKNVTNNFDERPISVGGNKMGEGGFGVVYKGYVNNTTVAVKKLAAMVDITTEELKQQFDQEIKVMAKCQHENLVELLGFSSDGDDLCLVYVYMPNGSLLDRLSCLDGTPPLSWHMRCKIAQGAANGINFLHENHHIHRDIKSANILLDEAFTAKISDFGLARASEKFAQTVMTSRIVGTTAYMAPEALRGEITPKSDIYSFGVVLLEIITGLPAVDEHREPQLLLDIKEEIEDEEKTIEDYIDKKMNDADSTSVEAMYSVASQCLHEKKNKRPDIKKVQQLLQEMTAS", "assay": "IRAK4 Enzymatic Assay", "format": "biochemical", "settings": "His-TEV-IRAK4 20 ng/well, ATP 2 μM, STK1-biotin peptide 300 nM, 3 hours at 30° C., FlashPlate radioactivity", "procedure,_shortened": "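Recombinant His-TEV-tagged IRAK4 (20 ng/well) phosphorylates biotinylated STK1 peptide (300 nM) with 2 μM ATP plus [^33P]ATP, 3 h at 30 °C in pH 7.0 HEPES buffer with MgCl2 and MnCl2; compounds tested 20 μM to 1 nM. Reaction stopped with EDTA; incorporated radioactivity counted on streptavidin FlashPlates.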", "units": {"IC50": "nM"}, "values": [{"molecule": "CN(C)CCNC(=O)[C@H]1CC[C@H](n2cc(-c3cnc(-c4cccc(-c5cnn(C)c5)c4)nc3)cn2)CC1", "note": "[Example 171, 4-(4-{2-[3-(1-Methyl-1H-pyrazol-4-yl)-phenyl]-pyrimidin-5-yl}-pyrazol-1-yl)-cyclohexanecarboxylic acid (2-dimethylamino-ethyl)-amide]", "IC50": "< 100"}, {"molecule": "Cn1cc(-c2cccc(-c3ncc(-c4cnn(C5CCCNCC5)c4)cn3)c2)cn1", "note": "(stereo not drawn) [Example 172, 4-(4-{2-[3-(1-Methyl-1H-pyrazol-4-yl)-phenyl]-pyrimidin-5-yl}-pyrazol-1-yl)-azepane]", "IC50": "< 100"}, {"molecule": "CC(C)CNC(=O)[C@H]1CC[C@H](n2cc(-c3cnc(-c4cccc(-c5cnn(C)c5)c4)nc3)cn2)CC1", "note": "[Example 173, Trans-4-(4-{2-[3-(1-Methyl-1H-pyrazol-4-yl)-phenyl]-pyrimidin-5-yl}-pyrazol-1-yl)-cyclohexanecarboxylic acid isobutyl-amide]", "IC50": "< 100"}, {"molecule": "CC(C)NC(=O)[C@H]1CC[C@H](n2cc(-c3cnc(-c4cccc(-c5cnn(C)c5)c4)nc3)cn2)CC1", "note": "[Example 174, 4-(4-{2-[3-(1-Methyl-1H-pyrazol-4-yl)-phenyl]-pyrimidin-5-yl}-pyrazol-1-yl)-cyclohexanecarboxylic acid isopropylamide]", "IC50": "100 to 1000"}, {"molecule": "Cn1cc(-c2cccc(-c3ncc(-c4cnn(C5CCN(c6ccccc6F)CC5)c4)cn3)c2)cn1", "note": "[Example 175, 5-{1-[1-(2-Fluoro-phenyl)-piperidin-4-yl]-1H-pyrazol-4-yl}-2-[3-(1-methyl-1H-pyrazol-4-yl)-phenyl]-pyrimidine]", "IC50": "100 to 1000"}, {"molecule": "Cn1cc(-c2cccc(-c3ncc(-c4cnn(C5CCS(=O)(=O)CC5)c4)cn3)c2)cn1", "note": "[Example 176, 5-[1-(1,1-Dioxo-hexahydro-1l6-thiopyran-4-yl)-1H-pyrazol-4-yl]-2-[3-(1-methyl-1H-pyrazol-4-yl)-phenyl]-pyrimidine]", "IC50": "100 to 1000"}, {"molecule": "Cn1cc(-c2cccc(-c3ncc(-c4cnn(C5CCCS(=O)(=O)C5)c4)cn3)c2)cn1", "note": "(stereo not drawn) [Example 177, 5-[1-(1,1-Dioxo-hexahydro-1l6-thiopyran-3-yl)-1H-pyrazol-4-yl]-2-[3-(1-methyl-1H-pyrazol-4-yl)-phenyl]-pyrimidin]", "IC50": "< 100"}, {"molecule": "COCC(C)NC(=O)[C@H]1CC[C@H](n2cc(-c3cnc(-c4cccc(-c5cnn(C)c5)c4)nc3)cn2)CC1", "note": "(stereo partly drawn) [Example 178, 4-(4-{2-[3-(1-Methyl-1H-pyrazol-4-yl)-phenyl]-pyrimidin-5-yl}-pyrazol-1-yl)-cyclohexanecarboxylic acid (2-methoxy-1-methyl-ethyl)-amide]", "IC50": "< 100"}, {"molecule": "Cn1cc(-c2cccc(-c3ncc(-c4cnn(C5CC6COCC(C5)N6)c4)cn3)c2)cn1", "note": "(stereo not drawn) [Example 179, 7-(4-{2-[3-(1-Methyl-1H-pyrazol-4-yl)-phenyl]-pyrimidin-5-yl}-pyrazol-1-yl)-3-oxa-9-aza-bicyclo[3.3.1]nonane]", "IC50": "< 100"}, {"molecule": "Cn1cc(-c2cccc(-c3ncc(-c4cnn([C@H]5CC[C@H](O)CC5)c4)cn3)c2)cn1", "note": "[Example 182, Trans-4-(4-{2-[3-(1-Methyl-1H-pyrazol-4-yl)-phenyl]-pyrimidin-5-yl}-pyrazol-1-yl)-cyclohexanol]", "IC50": "< 100"}, {"molecule": "Cn1cc(-c2cccc(-c3ncc(-c4cnn([C@@H]5CCCNC5)c4)cn3)c2)cn1", "note": "[Example 183, 2-[3-(1-Methyl-1H-pyrazol-4-yl)-phenyl]-5-((R)-1-piperidin-3-yl-1H-pyrazol-4-yl)-pyrimidine]", "IC50": "100 to 1000"}, {"molecule": "Cn1cc(-c2cccc(-c3ncc(-c4cnn([C@H]5CC[C@H](C(=O)NCCO)CC5)c4)cn3)c2)cn1", "note": "[Example 184, trans-4-(4-{2-[3-(1-Methyl-1H-pyrazol-4-yl)-phenyl]-pyrimidin-5-yl}-pyrazol-1-yl)-cyclohexanecarboxylic acid (2-hydroxy-ethyl)-amide]", "IC50": "< 100"}, {"molecule": "CN(CCO)C(=O)[C@H]1CC[C@H](n2cc(-c3cnc(-c4cccc(-c5cnn(C)c5)c4)nc3)cn2)CC1", "note": "[Example 185, trans-4-(4-{2-[3-(1-Methyl-1H-pyrazol-4-yl)-phenyl]-pyrimidin-5-yl}-pyrazol-1-yl)-cyclohexanecarboxylic acid (2-hydroxy-ethyl)-methyl-amide]", "IC50": "< 100"}, {"molecule": "Cn1cc(-c2cccc(-c3ncc(-c4cnn([C@H]5CC[C@H](C(=O)N6CC[C@@H](O)C6)CC5)c4)cn3)c2)cn1", "note": "[Example 186, ((R)-3-Hydroxy-pyrrolidin-1-yl)-[4-(4-{2-[3-(1-methyl-1H-pyrazol-4-yl)-phenyl]-pyrimidin-5-yl}-pyrazol-1-yl)-cyclohexyl]-methanone]", "IC50": "< 100"}, {"molecule": "Cc1cc(-c2cccc(-c3ncc(-c4cnn([C@H]5CC[C@H](C(=O)N(C)C)CC5)c4)cn3)c2)cnn1", "note": "[Example 187, trans-4-(4-{2-[3-(6-Methyl-pyridazin-4-yl)-phenyl]-pyrimidin-5-yl}-pyrazol-1-yl)-cyclohexanecarboxylic acid dimethylamide]", "IC50": "< 100"}, {"molecule": "CC(CO)NC(=O)[C@H]1CC[C@H](n2cc(-c3cnc(-c4cccc(-c5cnn(C)c5)c4)nc3)cn2)CC1", "note": "(stereo partly drawn) [Example 188, trans-4-(4-{2-[3-(1-Methyl-1H-pyrazol-4-yl)-phenyl]-pyrimidin-5-yl}-pyrazol-1-yl)-cyclohexanecarboxylic acid (2-hydroxy-1-methyl-ethyl)-amide]", "IC50": "100 to 1000"}, {"molecule": "Cn1cc(-c2cccc(-c3ncc(-c4cnn(C5CCC(=O)CC5)c4)cn3)c2)cn1", "note": "[Example 189, 4-(4-{2-[3-(1-Methyl-1H-pyrazol-4-yl)-phenyl]-pyrimidin-5-yl}-pyrazol-1-yl)-cyclohexanone]", "IC50": "100 to 1000"}, {"molecule": "Cn1cc(-c2cccc(-c3ncc(-c4cnn([C@H]5CC[C@H](C(=O)NCCCO)CC5)c4)cn3)c2)cn1", "note": "[Example 190, Trans-4-(4-{2-[3-(1-Methyl-1H-pyrazol-4-yl)-phenyl]-pyrimidin-5-yl}-pyrazol-1-yl)-cyclohexanecarboxylic acid (3-hydroxy-propyl)-amide]", "IC50": "< 100"}, {"molecule": "CO[C@H]1CCN(C(=O)[C@H]2CC[C@H](n3cc(-c4cnc(-c5cccc(-c6cnn(C)c6)c5)nc4)cn3)CC2)C1", "note": "[Example 191, Trans-((S)-3-Methoxy-pyrrolidin-1-yl)-[4-(4-{2-[3-(1-methyl-1H-pyrazol-4-yl)-phenyl]-pyrimidin-5-yl}-pyrazol-1-yl)-cyclohexyl]-methanone]", "IC50": "< 100"}, {"molecule": "Cn1cc(-c2cccc(-c3ncc(-c4cnn([C@H]5CC[C@H](C(=O)NC(C)(C)C)CC5)c4)cn3)c2)cn1", "note": "[Example 192, Trans-4-(4-{2-[3-(1-Methyl-1H-pyrazol-4-yl)-phenyl]-pyrimidin-5-yl}-pyrazol-1-yl)-cyclohexanecarboxylic acid tert-butylamide]", "IC50": "< 100"}, {"molecule": "CC(=O)N1[C@@H]2COC[C@H]1C[C@H](n1cc(-c3cnc(-c4cccc(-c5cnn(C)c5)c4)nc3)cn1)C2", "note": "[Example 193, exo-1-[7-(4-{2-[3-(1-Methyl-1H-pyrazol-4-yl)-phenyl]-pyrimidin-5-yl}-pyrazol-1-yl)-3-oxa-9-aza-bicyclo[3.3.1]non-9-yl]-ethanone]", "IC50": "100 to 1000"}, {"molecule": "CN(C)C(=O)[C@H]1C[C@H]2COC[C@@H](C1)[C@@H]2n1cc(-c2cnc(-c3cccc(-c4cnn(C)c4)c3)nc2)cn1", "note": "[Example 194, cis-cis-9-(4-{2-[3-(1-Methyl-1H-pyrazol-4-yl)-phenyl]-pyrimidin-5-yl}-pyrazol-1-yl)-3-oxa-bicyclo[3.3.1]nonane-7-carboxylic acid dimethylamide]", "IC50": "1000 to 5000"}, {"molecule": "Cn1cc(-c2cccc(-c3ncc(-c4cnn(C5CCCC(=O)C5)c4)cn3)c2)cn1", "note": "(stereo not drawn) [Example 195, 3-(4-{2-[3-(1-Methyl-1H-pyrazol-4-yl)-phenyl]-pyrimidin-5-yl}-pyrazol-1-yl)-cyclohexanone]", "IC50": "100 to 1000"}, {"molecule": "Cn1cc(-c2cccc(-c3ncc(-c4cnn([C@H]5CC[C@@H](O)CC5)c4)cn3)c2)cn1", "note": "[Example 196, Cis-4-(4-{2-[3-(1-Methyl-1H-pyrazol-4-yl)-phenyl]-pyrimidin-5-yl}-pyrazol-1-yl)-cyclohexanol]", "IC50": "100 to 1000"}, {"molecule": "CCNC(=O)[C@H]1CC[C@H](n2cc(-c3cnc(-c4cccc(-c5cnn(C)c5)c4)nc3)cn2)CC1", "note": "[Example 197, Trans-4-(4-{2-[3-(1-Methyl-1H-pyrazol-4-yl)-phenyl]-pyrimidin-5-yl}-pyrazol-1-yl)-cyclohexanecarboxylic acid ethylamide]", "IC50": "< 100"}, {"molecule": "C[C@@H](CO)NC(=O)[C@H]1CC[C@H](n2cc(-c3cnc(-c4cccc(-c5cnn(C)c5)c4)nc3)cn2)CC1", "note": "[Example 198, Trans-4-(4-{2-[3-(1-Methyl-1H-pyrazol-4-yl)-phenyl]-pyrimidin-5-yl}-pyrazol-1-yl)-cyclohexanecarboxylic acid ((S)-2-hydroxy-1-methyl-ethyl)-amide]", "IC50": "< 100"}, {"molecule": "C[C@H](CO)NC(=O)[C@H]1CC[C@H](n2cc(-c3cnc(-c4cccc(-c5cnn(C)c5)c4)nc3)cn2)CC1", "note": "[Example 199, Trans-4-(4-{2-[3-(1-Methyl-1H-pyrazol-4-yl)-phenyl]-pyrimidin-5-yl}-pyrazol-1-yl)-cyclohexanecarboxylic acid ((R)-2-hydroxy-1-methyl-ethyl)-amide]", "IC50": "< 100"}]}]}
